Assays:
[1] = system: STING protein; IRF/IFN signaling in THP-1 R232 cells; assay: Cell based reporter assay, THP-1 R232 IRF-luc; conditions: Homo sapiens, THP1-dual-KI R232 cells, IRF luciferase reporter; for Emax: maximum measured activity, read-out: THP 1-dual-KI R232_IRF(Luciferase)_Activity Maximum measured (%); for IC50: read-out: THP 1-dual-KI R232_IRF(Luciferase) IC50
From the text: Cell reporter assays were developed to measure the ability of compounds of the application to activate the STING protein and activate both IRF/IFN and the NFkB signaling pathways in the myeloid derived cell line THP-1, which is commercially available from several suppliers. Briefly, THP-1 monocytes were transfected and selected for stable integration of 2 reporter constructs. Clones incorporating stably integrated vectors were further selected by antibiotic resistance to blastocidin and zeocin. The reporter constructs included: (1) firefly luciferase reporter gene under the control of an ISG54 promoter fused to five interferon (IFN)-stimulated response elements to measure IRF transcription factor binding activity and (2) secreted embryonic alkaline phosphatase reporter gene under transcription control of an IFN-beta minimal promoter fused to 5 copies of the NFkB consensus transcriptional response element and 3 copies of the c-Rel binding site.
The resulting THP-1 cell line was further modified to incorporate 3 amino acid point mutations (H71R A230G Q293R). This modification of the native TMEM173 gene in THP-1 cells (HAQ) was designed to produce a cell reporter that expressed the most common allelic variant in the human population (THP-1 R232, available from InvivoGen). Alternatively, the TMEM173 gene was knocked out to provide a congenic control to counter-screen for compound activation that was independent of the STING protein (THP-1 STING KO).
Once cell lines were established, reporter assay protocols were developed and optimized to screen small molecule compounds for agonist activity. Assay optimization for efficacy and Z′ value included titration of the following parameters:
• 1. Cell pre-activation with PMA • 2. Cell seeding density • 3. DMSO tolerance • 4. Media selection • 5. FBS concentration • 6. Incubation time • 7. Co-Assessment of cell viability by CTG assay • 8. Appropriate HPE and ZPE controls • 9. Dose Response Titration
• 1. No pre-activation with PMA • 2. 5×10^4 cells/well in 96 well plate format • 3. <0.5% DMSO • 4. RPMI 1640+2.5 mg/ml glucose • 5. 10% FBS • 6. 14-18 hr incubation • 7. Cell Titer Glo reagent (Promega) following supernatant removal • 8. […] 8 point, 2 fold, duplicate starting at 150 μM

hSTING-R232 (aa140-379) = hSTING-R232 (aa140-379) (Homo sapiens, UniProt Q86WV6, H232R); assay: STING differential scanning fluorimetry (DSF) assay, hSTING WT; conditions: shift in melting temperature apo vs ligand-bound
Experimental: A STING DSF assay was performed to determine protein thermostability shift in response to small molecule ligand binding. A STING thermnostability shift assay based on differential scanning fluorimetry was used to measure (1) the net shift in melting temperature (ΔTm) between the apo and ligand-bound states of the STING protein and (2) the concentration of the thermal denaturation transition (EC50) as a surrogate measure of binding affinity (Kd). […] Protein in assay buffer was transferred to a 384 well plate and incubated with the hydrophobic fluorescent dye SYBR Orange. A temperature ramp was applied to the plate and the resulting dye fluorescence was plotted as a function of temperature. The first derivative of this function (dF/dT) was then used to extrapolate the melting temperature of the protein at various concentrations of compound and determine the thermal denaturation profile of a protein/compound complex.
5 μM purified Target STING Protein • 3. 8 μM Sypro Orange Dye • 4. Buffer: 100 mM NaCl, 30 mM HEPES, pH 7.5 • 5. Thermal Ramp: 0.5° C./min • 6. <1% DMSO • 7. 11 point, 2 fold dilution, duplicate, 300 μM high concentrations • 8.

[2] = biological target: human STING protein (140-379), WT (Homo sapiens, UniProt Q86WV6, H232R); assay: Radiometric filtration binding competition assay (FBA), hSTING-WT; conditions: WT-hSWAT IC50 (μM), WT_FBA_HIS-SUMO-hSWAT; wild-type human STING; competition with [H3] 2′3′cGAMP
human STING protein (140-379), WT, sequence (Q86WV6 140-379 H232R): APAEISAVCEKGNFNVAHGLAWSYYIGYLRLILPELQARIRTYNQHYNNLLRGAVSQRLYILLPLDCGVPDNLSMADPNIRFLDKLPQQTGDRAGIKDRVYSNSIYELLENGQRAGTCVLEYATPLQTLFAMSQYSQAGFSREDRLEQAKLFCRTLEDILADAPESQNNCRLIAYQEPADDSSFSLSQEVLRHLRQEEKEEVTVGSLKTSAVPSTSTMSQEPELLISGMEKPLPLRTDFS

hSTING-R232 (aa140-379), sequence (Q86WV6 140-379 H232R): as above

Compound | Emax [1] | IC50 [1] | WT_DSF_hSWAT Tm Shift (° C.) (hSTING-R232 (aa140-379)) | IC50 [2]
COc1cc2c(=O)c3ccc(Cl)c(N(C)C)c3n(CC(=O)O)c2cc1OC [Compound 1] | 5 to 25% | > 150 µM | B (“B” = 0-2° C.) | < 20 µM
COc1ccc2c(=O)c3ccc(Cl)c(N(C)C)c3n(CC(=O)O)c2c1 [Compound 2] | > 50% | < 50 µM | D (“D” >7° C.) | 20 to 100 µM
CN(C)c1c(Cl)ccc2c(=O)c3cc(Cl)c(Br)cc3n(CC(=O)O)c12 [Compound 3] | > 50% | < 50 µM | C (“C” = 2-7° C.) | 20 to 100 µM
Cc1cccn1-c1ccc2c(=O)c3ccc(Cl)c(N(C)C)c3n(CC(=O)O)c2c1 [Compound 4] | > 50% | < 50 µM | D (“D” >7° C.) | < 20 µM
CN(C)c1c(Cl)ccc2c(=O)c3ccc(-n4ccnc4)cc3n(CC(=O)O)c12 [Compound 5] | > 50% | < 50 µM | C (“C” = 2-7° C.) | 20 to 100 µM
CN(C)c1c(Cl)ccc2c(=O)c3ccc(-n4cccn4)cc3n(CC(=O)O)c12 [Compound 6] | > 50% | < 50 µM | D (“D” >7° C.) | < 20 µM
CN(C)c1c(Cl)ccc2c(=O)c3ccc(-n4cccc4)cc3n(CC(=O)O)c12 [Compound 7] | > 50% | < 50 µM | D (“D” >7° C.) | < 20 µM
CN(C)c1c(Cl)ccc2c(=O)c3ccc(-c4ccncc4)cc3n(CC(=O)O)c12 [Compound 8] | > 50% | < 50 µM | D (“D” >7° C.) | < 20 µM
CN(C)c1c(Cl)ccc2c(=O)c3ccc(-c4cccnc4)cc3n(CC(=O)O)c12 [Compound 9] | > 50% | < 50 µM | C (“C” = 2-7° C.) | < 20 µM
CN(C)c1c(Cl)ccc2c(=O)c3ccc(-c4ccccn4)cc3n(CC(=O)O)c12 [Compound 10] | > 50% | < 50 µM | D (“D” >7° C.) | < 20 µM
CN(C)c1c(Cl)ccc2c(=O)c3ccc(-c4ccccc4)cc3n(CC(=O)O)c12 [Compound 11] | > 50% | < 50 µM | D (“D” >7° C.) | < 20 µM
Cc1noc(C)c1-c1ccc2c(=O)c3ccc(Cl)c(N(C)C)c3n(CC(=O)O)c2c1 [Compound 12] | – | – | C (“C” = 2-7° C.) | 20 to 100 µM
CN(C)c1c(Cl)ccc2c(=O)c3ccc(-c4cnoc4)cc3n(CC(=O)O)c12 [Compound 13] | > 50% | < 50 µM | D (“D” >7° C.) | –
CN(C)c1c(Cl)ccc2c(=O)c3ccc(-c4cc[nH]c4)cc3n(CC(=O)O)c12 [Compound 14] | > 50% | < 50 µM | D (“D” >7° C.) | < 20 µM
CN(C)c1c(Cl)ccc2c(=O)c3ccc(C4=CCN(C(=O)OC(C)(C)C)CC4)cc3n(CC(=O)O)c12 [Compound 15] | > 50% | < 50 µM | D (“D” >7° C.) | < 20 µM
CN(C)c1c(Cl)ccc2c(=O)c3ccc(C4=CCOC4)cc3n(CC(=O)O)c12 [Compound 16] | > 50% | < 50 µM | D (“D” >7° C.) | < 20 µM
CN(C)c1c(Cl)ccc2c(=O)c3ccc(-c4ccn(C(=O)OC(C)(C)C)c4)cc3n(CC(=O)O)c12 [Compound 17] | > 50% | < 50 µM | D (“D” >7° C.) | < 20 µM
CC/C=C(\CC)c1ccc2c(=O)c3ccc(Cl)c(OC)c3n(CC(=O)O)c2c1 [Compound 18] | > 50% | < 50 µM | D (“D” >7° C.) | 20 to 100 µM
CC/C=C(\CC)c1ccc2c(=O)c3ccc(Cl)c(N(C)C)c3n(CC(=O)O)c2c1 [Compound 19] | > 50% | < 50 µM | D (“D” >7° C.) | < 20 µM
CN(C)c1c(Cl)ccc2c(=O)c3ccc(Br)cc3n(CC(=O)O)c12 [Compound 20] | > 50% | < 50 µM | D (“D” >7° C.) | < 20 µM

Compound | Emax [1] | IC50 [1] | WT_DSF_hSWAT Tm Shift (° C.) (hSTING-R232 (aa140-379)) | IC50 [2]
CC(C)c1ccc2c(=O)c3c(O)cc(Cl)c(N(C)C)c3n(CC(=O)O)c2c1 [Compound 21] | > 50% | < 50 µM | D (“D” >7° C.) | < 20 µM
CCC(C)(C)c1ccc2c(=O)c3ccc(Cl)c(N(C)C)c3n(CC(=O)O)c2c1 [Compound 22] | > 50% | 50 to 100 µM | D (“D” >7° C.) | < 20 µM
CN(C)c1c(Cl)ccc2c(=O)c3ccc(C4=CCCCC4)cc3n(CC(=O)O)c12 [Compound 23] | > 50% | < 50 µM | D (“D” >7° C.) | < 20 µM
Cc1ccc2c(=O)c3ccc(C(F)(F)F)c(N(C)C)c3n(CC(=O)O)c2c1 [Compound 26] | – | – | B (“B” = 0-2° C.) | > 300 µM
COc1c(Cl)ccc2c(=O)c3ccc(C4CCC(N5CCN(C)CC5)CC4)cc3n(CC(=O)O)c12 (stereo not drawn) [Compound 27] | – | – | C (“C” = 2-7° C.) | 20 to 100 µM
COc1c(Cl)ccc2c(=O)c3ccc(C4=CCC(N5CCN(C)CC5)CC4)cc3n(CC(=O)O)c12 (stereo not drawn) [Compound 28] | – | – | C (“C” = 2-7° C.) | 20 to 100 µM
Cc1cc2c(cc1Cl)c(=O)c1ccc(Cl)c(N(C)C)c1n2CC(=O)O [Compound 33] | > 50% | < 50 µM | C (“C” = 2-7° C.) | –
CCc1cccc2c(=O)c3ccc(C)cc3n(CC(=O)O)c12 [Compound 38] | – | – | B (“B” = 0-2° C.) | > 300 µM
COc1c(Cl)ccc2c(=O)c3ccc(C4=CCNC4)cc3n(CC(=O)O)c12 [Compound 40] | – | – | C (“C” = 2-7° C.) | > 300 µM
COc1c(Cl)ccc2c(=O)c3ccc(C4=CCN(C(=O)OC(C)(C)C)C4)cc3n(CC(=O)O)c12 [Compound 41] | – | – | D (“D” >7° C.) | 20 to 100 µM
CN(C)c1c(Cl)ccc2c(=O)c3ccc(C(C)(C)C)cc3n(CC(=O)NS(=O)(=O)C3CC3)c12 [Compound 42] | – | – | D (“D” >7° C.) | < 20 µM
CN(C)c1c(Cl)ccc2c(=O)c3ccc(C(C)(C)C)cc3n(CC(=O)NC#N)c12 [Compound 43] | – | – | D (“D” >7° C.) | < 20 µM
Cc1ccc2c(=O)c3ccc(Cl)c(N(C)C)c3n(CC(=O)NS(=O)(=O)C3CC3)c2c1 [Compound 44] | – | – | D (“D” >7° C.) | 20 to 100 µM
Cc1ccc2c(=O)c3ccc(Cl)c(N(C)C)c3n(CC(=O)NC#N)c2c1 [Compound 45] | – | – | C (“C” = 2-7° C.) | 20 to 100 µM
CCc1c(Cl)ccc2c(=O)c3ccc(C)cc3n(CC(=O)O)c12 [Compound 48] | – | – | D (“D” >7° C.) | 20 to 100 µM
C=Cc1c(Cl)ccc2c(=O)c3ccc(C)cc3n(CC(=O)O)c12 [Compound 49] | – | – | D (“D” >7° C.) | 20 to 100 µM
CN(C)c1c(Cl)ccc2c(=O)c3ccc(-c4ccco4)cc3n(CC(=O)O)c12 [Compound 50] | – | – | D (“D” >7° C.) | 20 to 100 µM
COc1c(Cl)ccc2c(=O)c3ccc(Br)cc3n(CC(=O)O)c12 [Compound 66] | – | – | C (“C” = 2-7° C.) | 100 to 300 µM
CN(C)c1c(Cl)ccc2c(=O)c3ccc(C4(C)CC4)cc3n(CC(=O)O)c12 [Compound 85] | > 50% | < 50 µM | – | < 20 µM
CCc1cc2c(cc1Cl)c(=O)c1ccc(Cl)c(N(C)C)c1n2CC(=O)O [Compound 93] | > 50% | < 50 µM | C (“C” = 2-7° C.) | –
